Reference: ChEMBL document CHEMBL3885881, “DrugMatrix”

Species on record: Rattus norvegicus
Assay: DrugMatrix - Regimen: Daily Repeat
Assay type: toxicity, organism-based, Sprague-Dawley
Set-up: regimen Daily Repeat, gender Male, age 6-8 weeks
Details: in vivo, po, route oral GAVAGE, vehicle 100 % WATER
[1] = 1 mg/kg, 72 h, tissue Plasma, dose level Low, time 3 day
[2] = 1 mg/kg, 120 h, tissue Blood, dose level Low, time 5 day
[3] = 1 mg/kg, 120 h, tissue Plasma, dose level Low, time 5 day
[4] = 10 mg/kg, 72 h, tissue Blood, dose level High, time 3 day
[5] = 10 mg/kg, 72 h, tissue Plasma, dose level High, time 3 day
[6] = 10 mg/kg, 120 h, tissue Blood, dose level High, time 5 day
[7] = 10 mg/kg, 120 h, tissue Plasma, dose level High, time 5 day

Q: THIMEROSAL was tested. Which “TOTAL BILIRUBIN” value [1] did it give?
A: Its value is 0.2 mg/dL.

Q: And the “TOTAL PROTEIN” value [1]?
A: The value was 5.73 G/DL.

Q: What about the “ABSOLUTE BASOPHIL” value [2] of the same sequence?
A: The value was 0 CELLS/uL.

Q: What about the “ABSOLUTE EOSINOPHIL” value [2] of the same sequence?
A: The value was 50.33 CELLS/uL.

Q: And the “ABSOLUTE MONOCYTE” value [2]?
A: Its value is 268.67 CELLS/uL.

Q: And the “ABSOLUTE SEGMENTED NEUTROPHIL” value [2]?
A: The value was 1091 CELLS/uL.

Q: What about the BASOPHIL [2] of the same sequence?
A: The BASOPHIL was 0%.

Q: What about the EOSINOPHIL [2] of the same sequence?
A: The EOSINOPHIL was 0.33%.

Q: And the “ERYTHROCYTE COUNT” value [2]?
A: Its value is 5.58 x10E6/uL.

Q: And the HEMATOCRIT [2]?
A: The HEMATOCRIT was 35.07%.

Q: What about the “LEUKOCYTE COUNT” value [2] of the same sequence?
A: The value was 11.73 x10E3/uL.

Q: And the LYMPHOCYTE [2]?
A: Its LYMPHOCYTE is 88%.

Q: And the “MEAN CORPUSCULAR HEMOGLOBIN” value [2]?
A: Its value is 25.23 pg.

Q: What about the “MEAN CORPUSCULAR HEMOGLOBIN CONCENTRATION” value [2] of the same sequence?
A: Its value is 40.13 G/DL.

Q: And the “NUCLEATED RED BLOOD CELLS” value [2]?
A: The value was 0 /100WBC.

Q: What about the “PLATELET COUNT” value [2] of the same sequence?
A: The value was 1316.33 x10E3/uL.

Q: What about the “ALANINE AMINOTRANSFERASE” value [3] of the same sequence?
A: Its value is 43.33 u/L.

Q: What about the “ALKALINE PHOSPHATASE” value [3] of the same sequence?
A: Its value is 369 u/L.

Q: And the “ASPARTATE AMINOTRANSFERASE” value [3]?
A: The value was 83.33 u/L.

Q: What about the “BLOOD UREA NITROGEN” value [3] of the same sequence?
A: The value was 15.67 mg/dL.

Q: And the “CARBON DIOXIDE” value [3]?
A: Its value is 30.33 mmol/L.

Q: What about the CHOLESTEROL [3] of the same sequence?
A: The CHOLESTEROL was 67.33 mg/dL.

Q: What about the “CREATINE PHOSPHOKINASE” value [3] of the same sequence?
A: Its value is 227.33 u/L.

Q: And the CREATININE [3]?
A: The CREATININE was 0.2 mg/dL.

Q: What about the GLUCOSE [3] of the same sequence?
A: Its GLUCOSE is 177.33 mg/dL.

Q: What about the “LACTATE DEHYDROGENASE” value [3] of the same sequence?
A: The value was 246 u/L.

Q: And the LIPASE [3]?
A: Its LIPASE is 10 u/L.

Q: And the PHOSPHORUS [3]?
A: Its PHOSPHORUS is 11.2 mg/dL.

Q: What about the POTASSIUM [3] of the same sequence?
A: Its POTASSIUM is 6.65 MEQ/L.

Q: What about the “TOTAL BILIRUBIN” value [3] of the same sequence?
A: Its value is 0.27 mg/dL.

Q: What about the “TOTAL PROTEIN” value [3] of the same sequence?
A: The value was 5.93 G/DL.

Q: What about the “URIC ACID” value [3] of the same sequence?
A: The value was 1.4 mg/dL.

Q: What about the “ABSOLUTE BASOPHIL” value [4] of the same sequence?
A: Its value is 0 CELLS/uL.

Q: What about the “ABSOLUTE EOSINOPHIL” value [4] of the same sequence?
A: Its value is 0 CELLS/uL.

Q: What about the “ABSOLUTE MONOCYTE” value [4] of the same sequence?
A: Its value is 196.33 CELLS/uL.

Q: What about the “ABSOLUTE SEGMENTED NEUTROPHIL” value [4] of the same sequence?
A: The value was 1492 CELLS/uL.

Q: What about the BASOPHIL [4] of the same sequence?
A: The BASOPHIL was 0%.

Q: What about the EOSINOPHIL [4] of the same sequence?
A: Its EOSINOPHIL is 0%.

Q: What about the “ERYTHROCYTE COUNT” value [4] of the same sequence?
A: The value was 5.18 x10E6/uL.

Q: What about the HEMATOCRIT [4] of the same sequence?
A: The HEMATOCRIT was 33.3%.

Q: What about the HEMOGLOBIN [4] of the same sequence?
A: Its HEMOGLOBIN is 13.3 G/DL.

Q: And the “LEUKOCYTE COUNT” value [4]?
A: Its value is 14.17 x10E3/uL.

Q: What about the LYMPHOCYTE [4] of the same sequence?
A: The LYMPHOCYTE was 88.67%.

Q: And the “MEAN CORPUSCULAR HEMOGLOBIN” value [4]?
A: The value was 25.73 pg.

Q: What about the “MEAN CORPUSCULAR HEMOGLOBIN CONCENTRATION” value [4] of the same sequence?
A: Its value is 39.93 G/DL.

Q: And the NEUTROPHIL [4]?
A: Its NEUTROPHIL is 10%.

Q: What about the “NUCLEATED RED BLOOD CELLS” value [4] of the same sequence?
A: Its value is 0.33 /100WBC.

Q: And the “PLATELET COUNT” value [4]?
A: Its value is 1209 x10E3/uL.

Q: And the “ALANINE AMINOTRANSFERASE” value [5]?
A: The value was 54.33 u/L.

Q: And the ALBUMIN [5]?
A: The ALBUMIN was 3.7 G/DL.

Q: What about the “ALKALINE PHOSPHATASE” value [5] of the same sequence?
A: The value was 440.67 u/L.

Q: And the “ASPARTATE AMINOTRANSFERASE” value [5]?
A: The value was 82.67 u/L.

Q: And the “BLOOD UREA NITROGEN” value [5]?
A: The value was 15 mg/dL.

Q: What about the “CARBON DIOXIDE” value [5] of the same sequence?
A: Its value is 30 mmol/L.

Q: And the CHOLESTEROL [5]?
A: Its CHOLESTEROL is 107.67 mg/dL.

Q: What about the “CREATINE PHOSPHOKINASE” value [5] of the same sequence?
A: Its value is 183.33 u/L.

Q: What about the CREATININE [5] of the same sequence?
A: The CREATININE was 0.16 mg/dL.

Q: And the “LACTATE DEHYDROGENASE” value [5]?
A: The value was 137 u/L.

Q: What about the PHOSPHORUS [5] of the same sequence?
A: The PHOSPHORUS was 11 mg/dL.

Q: What about the POTASSIUM [5] of the same sequence?
A: Its POTASSIUM is 6.64 MEQ/L.

Q: And the “TOTAL BILIRUBIN” value [5]?
A: The value was 0.2 mg/dL.

Q: And the “TOTAL PROTEIN” value [5]?
A: The value was 5.57 G/DL.

Q: And the “ABSOLUTE BASOPHIL” value [6]?
A: The value was 0 CELLS/uL.

Q: And the “ABSOLUTE EOSINOPHIL” value [6]?
A: Its value is 0 CELLS/uL.

Q: What about the “ABSOLUTE LYMPHOCYTE” value [6] of the same sequence?
A: Its value is 10043.33 CELLS/uL.

Q: What about the “ABSOLUTE MONOCYTE” value [6] of the same sequence?
A: Its value is 291.67 CELLS/uL.

Q: What about the “ABSOLUTE SEGMENTED NEUTROPHIL” value [6] of the same sequence?
A: The value was 1665 CELLS/uL.

Q: What about the BASOPHIL [6] of the same sequence?
A: The BASOPHIL was 0%.

Q: What about the EOSINOPHIL [6] of the same sequence?
A: The EOSINOPHIL was 0%.

Q: What about the “ERYTHROCYTE COUNT” value [6] of the same sequence?
A: The value was 6.38 x10E6/uL.

Q: And the HEMATOCRIT [6]?
A: Its HEMATOCRIT is 39.67%.

Q: What about the HEMOGLOBIN [6] of the same sequence?
A: Its HEMOGLOBIN is 15.6 G/DL.

Q: And the “LEUKOCYTE COUNT” value [6]?
A: Its value is 12 x10E3/uL.

Q: What about the LYMPHOCYTE [6] of the same sequence?
A: The LYMPHOCYTE was 84.67%.

Q: And the “MEAN CORPUSCULAR HEMOGLOBIN” value [6]?
A: The value was 24.57 pg.

Q: What about the NEUTROPHIL [6] of the same sequence?
A: The NEUTROPHIL was 13%.

Q: What about the “NUCLEATED RED BLOOD CELLS” value [6] of the same sequence?
A: Its value is 0 /100WBC.

Q: What about the “PLATELET COUNT” value [6] of the same sequence?
A: Its value is 1253 x10E3/uL.

Q: What about the “ALANINE AMINOTRANSFERASE” value [7] of the same sequence?
A: Its value is 56.33 u/L.

Q: What about the “ALKALINE PHOSPHATASE” value [7] of the same sequence?
A: The value was 463.67 u/L.

Q: And the “ASPARTATE AMINOTRANSFERASE” value [7]?
A: Its value is 83.67 u/L.

Q: And the “BLOOD UREA NITROGEN” value [7]?
A: The value was 15.67 mg/dL.

Q: And the CHOLESTEROL [7]?
A: The CHOLESTEROL was 116.33 mg/dL.

Q: What about the “CREATINE PHOSPHOKINASE” value [7] of the same sequence?
A: Its value is 208.33 u/L.

Q: What about the CREATININE [7] of the same sequence?
A: Its CREATININE is 0.22 mg/dL.

Q: And the GLUCOSE [7]?
A: The GLUCOSE was 156 mg/dL.

Q: What about the “LACTATE DEHYDROGENASE” value [7] of the same sequence?
A: The value was 176.33 u/L.

Q: And the PHOSPHORUS [7]?
A: The PHOSPHORUS was 10.43 mg/dL.

Q: And the POTASSIUM [7]?
A: The POTASSIUM was 6.38 MEQ/L.

Q: And the “TOTAL BILIRUBIN” value [7]?
A: Its value is 0.1 mg/dL.

Q: What about the “TOTAL PROTEIN” value [7] of the same sequence?
A: The value was 6 G/DL.

Q: What about the “URIC ACID” value [7] of the same sequence?
A: The value was 1.63 mg/dL.
